The conditions of data set [1]: cited from earlier work; for Absorption λmax / Emission λmax / Stokes Shift / ΦF absolute quantum yield / τ photoluminescence lifetime: 298 K.
The nature of data set [2]: UV-Vis absorption and time-resolved photoluminescence spectroscopy. To be noted: 6b compared with 6a. It is filed as physicochemical. How it is done:
All solvents used were of spectrometric grade (Uvasol®). UV-visible absorption spectra were measured using a Shimadzu UV–VIS spectrophotometer (UV-3600i). Photoluminescence quantum yields were measured with a Hamamatsu Photonics absolute PL quantum yield measurement system (C9920-02) equipped with a L9799-01 CW Xe light source (150 W), a monochromator, a C7473 photonic multi-channel analyzer, an integrating sphere and employing U6039-05 software, version 3.6.0. (Hamamatsu Photonics, Ltd., Shizuoka, Japan). Steady-state excitation and emission spectra were recorded on a FluoTime 300 spectrometer from PicoQuant equipped with a 300 W ozone-free Xe lamp (200–1100 nm), a 10 W Xe-flash lamp (200–1100 nm, pulse width ca. 1 µs) with repetition rates of 1–300 Hz, a double-grating excitation monochromator (Czerny–Turner type, grating with 1200 lines/mm, blaze wavelength: 300 nm), diode lasers (pulse width < 20 ps) operated by a computer-controlled laser driver PDL-828 “Sepia II” (repetition rate up to 80 MHz, burst mode for slow and weak decays), two emission monochromators (Czerny–Turner, selectable between double-grating blazed at 500 nm with 2.7 nm/mm dispersion and 1200 lines/mm, or single-grating blazed at 1250 nm with 5.4 nm/mm dispersion and 600 lines/mm) with adjustable slit width between 25 μm and 7 mm. Glam–Thompson polarizers for excitation (after the Xe-lamps) and emission (after the sample) were used. Different sample holders (Peltier-cooled mounting unit ranging from −15 to 110 °C or an adjustable front-face sample holder), along with two detectors (namely a PMA Hybrid-07 from PicoQuant with transit time spread FWHM < 50 ps, 200–850 nm, or a H10330C-45-C3 NIR detector with transit time spread FWHM 0.4 ns, 950–1400 nm from Hamamatsu) were used. Steady-state spectra and photoluminescence lifetimes were recorded in TCSPC mode by a PicoHarp 300 (minimum base resolution 4 ps) or in MCS mode by a TimeHarp 260 (where up to several ms can be traced). Emission and excitation spectra were corrected for source intensity (lamp and grating) by standard correction curves. For samples with lifetimes in the ns order, an instrument response function calibration (IRF) was performed using a diluted Ludox® dispersion. Lifetime analysis was performed using the commercial EasyTau 2 software, version 2.3. (PicoQuant, Berlin, Germany). The quality of the fit was assessed by minimizing the reduced chi squared function (χ^2) and visual inspection of the weighted residuals and their autocorrelation.
Fluorescence microscopy was used for the analysis of KCa3.1 channel labeling of cells with fluorescent dyes. Therefore, the photophysical properties of fluorescently labeled senicapoc derivatives 15a, 21a, and 22 were determined. Since the fluorophores are separated from the rest of the molecule by a linker, the photophysical properties could be recorded using azide precursors 6a, 6b, and 7a as well.

The mark [3] stands for this setting: measured in CH3CN, c = 10^−5 M, CH2CH2O linker instead of CH2CH2OCH2CH2O linker.
[4] abbreviates: general property stated without reference.

The text below walks through data of paper PMC11859423, “Fluorescent Probes to Image the KCa3.1 Channel in Tumor Cells” (Pharmaceutics, 2025).

Where two headings read alike, the source gives them in different places.

In the case of `CC1=CC(C)=[N+]2C1=C(c1ccc(OCCOCCN=[N+]=[N-])cc1)c1c(C)cc(C)n1[B-]2(F)F` [6a], in data set [1] (CH2Cl2, c = 10^−5 M), the “Absorption λmax” value was 501 nm, the “Emission λmax” value was 515 nm, the “Stokes Shift” value was 14 nm and the “ΦF absolute quantum yield” value is reported as 0.48 ± 0.02. Also, the τ photoluminescence lifetime in data set [1] (CH2Cl2, c = 10^−5 M) is 3.80 ± 0.02 ns.
For the compound `CCC1=C(C)C2=C(c3ccc(OCCOCCN=[N+]=[N-])cc3)c3c(C)c(CC)c(C)n3[B-](F)(F)[N+]2=C1C` [6b, 8-[4-(2-(2-Azidoethoxy)ethoxy)phenyl]-2,6-diethyl-4,4-difluoro-1,3,5,7-tetramethyl-4-bora-3a,4a-diaza-s-indacene], in data set [2], the “increase of absorption and emission maxima by two ethyl moieties at the bodipy core” value was 23 nm. Moreover, in data set [1] (setting [3]), the “Absorption λmax” value is 524 nm, the “Emission λmax” value was 537 nm, the “Stokes Shift” value was 13 nm and the “ΦF absolute quantum yield” value is 0.81 ± 0.02. Besides, in data set [1] (setting [3]), the τ photoluminescence lifetime is recorded as 6.32 ± 0.05 ns.
With `CO[B-]1(F)n2c(C)cc(C)c2C(c2ccc(OCCOCCN=[N+]=[N-])cc2)=C2C(C)=CC(C)=[N+]21` (stereo not drawn) [7a], in data set [1] (CH2Cl2, c = 10^−5 M), the “Absorption λmax” value is 501 nm, the “Emission λmax” value is given as 516 nm, the “Stokes Shift” value is reported as 15 nm and the “ΦF absolute quantum yield” value was 0.43 ± 0.02. In data set [1] (CH2Cl2, c = 10^−5 M), the τ photoluminescence lifetime was 3.50 ± 0.01 ns.
Regarding `O=C1OC2(c3ccc(O)cc3Oc3cc(O)ccc32)c2ccccc21` [fluorescein, reference compound], in data set [1] (setting [4]), the “absorption maximum λmax” value is reported as 485 nm and the “emission maximum λmax” value was 514 nm.
